Reference: patent publication EP2649983A1, “Compounds which inhibit neuronal exocytosis (II)” (Lipotec, S.A., priority 2012, dated 2013)
Residues, ends and D or L forms follow the SMILES beside them. No end group written: not given here. *: point of attachment. Palmitoyl = CCCCCCCCCCCCCCCC(=O)*; NHhexadecyl = CCCCCCCCCCCCCCCCN*; Myristoyl = CCCCCCCCCCCCCC(=O)*

Tests used:
SNARE complex [1] = assay: Inhibition of SNARE complex formation (competition versus SNAP-25), complex detected by ELISA; format: binding
Procedure: With the aim of determining the capacity of inhibition of the SNARE complex formation by the compounds of the invention, the competitive inhibition of the compounds compared to SNAP-25 was studied with regards to the formation of this complex. The proportion of SNARE complex formed was determined by the ELISA technique, using one of the proteins from the complex bound to GST. In a 96-well plate VAMP was immobilized (using a 0.037 µM solution) and subsequently the free spaces were blocked with BSA (3%). Parallel to this process, SNAP-25 bound to GST (0.0185 µM), syntaxin (0.037 µM) and a compound of the invention (2.5 mM and 0.5 mM compounds) were incubated for 1 hour. After incubation, the samples were transferred to the plate with immobilized VAMP and were incubated for 1 hour to allow the formation of the SNARE complex. Afterward, the plate was washed and the complex was detected by a primary antibody anti-GST (Antibody anti-GST epitope TAG, Fisher Cat. no:PA1-982A). The reading was carried out at a wavelength of 490 nm in a TECAN GENios spectrophotometric reader.
Table 4 showns the results of the competitive inhibition of the formation of the SNARE complex by the compounds of the invention versus SNAP-25. The percentage of inhibition of the formation of the complex is inversely proportional to the quantity of SNARE complex spectrophotometrically detected.

SNARE complex [2] = assay: Inhibition of SNARE complex formation, complex detected by electrophoresis (SDS-PAGE); format: binding
Procedure: VAMP (6 µM), syntaxin (6 µM) and the compound of the invention (5 mM or 1 mM compounds) were incubated for 3 hours. Subsequently, SNAP-25 (0.6 µM) was added and the mixture was incubated for an additional 15 hours to allow the formation of the SNARE complex. After incubation, the loading buffer (Laemli Simple Buffer) was added and the mixture was analyzed by 10% acrylamide SDS-PAGE in gel. The amount of complex was determined by MediaCybernetics image analysis software Image-Pro Plus.
The percentage of inhibition of the formation of the complex is inversely proportional to the quantity of SNARE complex detected.

[3] = test system: human neuroblastoma cell line; assay: Release of noradrenaline induced by TPA/ionomycin in a neuroblastoma cell line, quantified by ELISA; format: cell-based; details: 60 minutes pre-incubation, TPA/ION = 100.00
Procedure: The induction of the release of noradrenaline with TPA (12-O-tetradecanoylphorbol-13-acetate)/lonomycin enables direct measurement of neuronal exocytosis. For the study of the inhibitory effect of the compounds of the invention on the release of noradrenaline, cells of a human neuroblastoma cell line were pre-incubated (1x10^6 cells/well) for 60 minutes with the compound of the invention (1 µM, 10 µM, 100 µM, 500 µM or 1 mM compounds), and afterward the release of noradrenaline was induced. The release of the noradrenaline neurotransmitter was induced by an 8 minute pretreatment with a solution of 12-O-tetradecanoylphorbol-13-acetate (TPA) 100 nM, which mobilized the intracellular vesicles which contained the neurotransmitter; followed by a 5 minute incubation with TPA/lonomycin (100 nM/10 µM), which induced the release of the neurotransmitter contained in these vesicles. […] For this, absorbance at 405 nm was measured in Thermo Scientific Multiskan Ascent equipment.
The blocking of the SNARE complex by the compounds of the invention lead to an inhibition of neuronal exocytosis and therefore, a decrease in the levels of released noradrenaline (Table 6).

[4] = concentration of compound 2.5 mM
[5] = concentration of compound 0.5 mM

Compound: CCCCCCCCCCCCCCCCNC(=O)[C@H](CCSC)NC(=O)[C@H](Cc1c[nH]c2ccccc12)NC(=O)[C@H](CCCNC(=N)N)NC(=O)[C@H](CCCCN)NC(=O)[C@H](CC(C)C)NC(=O)[C@H](CC(=O)O)NC(=O)[C@H](CCC(=O)O)NC(C)=O [Ac-SEQ ID NO:14-NH-(CH2)15-CH3] (Ac-EDLKRWM-NHhexadecyl)
- % inhibition formation SNARE complex (SNARE complex [1]; [4]): 35%

Compound: CCCCCCCCCCCCCC(=O)N[C@@H](CC(N)=O)C(=O)N[C@@H](Cc1c[nH]cn1)C(=O)N[C@@H](Cc1ccccc1)C(=O)N[C@@H](CC(C)C)C(=O)N[C@@H](CC(N)=O)C(=O)N[C@@H](Cc1c[nH]c2ccccc12)C(=O)N[C@@H](CCSC)C(N)=O [Myr-SEQ ID NO:15-NH2] (Myristoyl-NHFLNWM-NH2)
- % inhibition formation SNARE complex (SNARE complex [2]; concentration of compound 1 mM): 23%
- % inhibition formation SNARE complex (SNARE complex [2]; concentration of compound 5 mM): 76%

Compound: CCCCCCCCCCCCCCCC(=O)N[C@@H](CCC(=O)O)C(=O)N[C@@H](Cc1c[nH]cn1)C(=O)N[C@@H](CC(C)C)C(=O)N[C@@H](CCCCN)C(=O)N[C@@H](CCC(N)=O)C(=O)N[C@@H](Cc1c[nH]c2ccccc12)C(=O)N[C@@H](CCSC)C(N)=O [Palm-SEQ ID NO:1-NH2] (Palmitoyl-EHLKQWM-NH2)
- % inhibition formation SNARE complex (SNARE complex [1]; [5]): 21%
- % inhibition formation SNARE complex (SNARE complex [1]; [4]): 47%

Compound: CCCCCCCCCCCCCCCC(=O)N[C@@H](CCC(N)=O)C(=O)N[C@@H](Cc1c[nH]cn1)C(=O)N[C@@H](CC(C)C)C(=O)N[C@@H](Cc1c[nH]cn1)C(=O)N[C@@H](CC(N)=O)C(=O)N[C@H](C(=O)N[C@@H](CCSC)C(N)=O)C(C)C [Palm-SEQ ID NO:3-NH2] (Palmitoyl-QHLHNVM-NH2)
- % inhibition formation SNARE complex (SNARE complex [1]; [4]): 51%

Compound: CCCCCCCCCCCCCCCC(=O)N[C@@H](CCC(=O)O)C(=O)N[C@@H](CC(=O)O)C(=O)N[C@@H](CC(C)C)C(=O)N[C@@H](CCCCN)C(=O)N[C@@H](CCCNC(=N)N)C(=O)N[C@@H](Cc1c[nH]c2ccccc12)C(=O)N[C@@H](CCSC)C(N)=O [Palm-SEQ ID NO:14-NH2] (Palmitoyl-EDLKRWM-NH2)
- % inhibition formation SNARE complex (SNARE complex [2]; concentration of compound 5 mM): 93%

Compound: CCCCCCCCCCCCCCCC(=O)N[C@@H](CC(N)=O)C(=O)N[C@@H](Cc1c[nH]cn1)C(=O)N[C@@H](Cc1ccccc1)C(=O)N[C@@H](CC(C)C)C(=O)N[C@@H](CC(N)=O)C(=O)N[C@@H](Cc1c[nH]c2ccccc12)C(=O)N[C@@H](CCSC)C(N)=O [Palm-SEQ ID NO:15-NH2] (Palmitoyl-NHFLNWM-NH2)
- % inhibition formation SNARE complex (SNARE complex [2]; concentration of compound 1 mM): 22%
- % inhibition formation SNARE complex (SNARE complex [2]; concentration of compound 5 mM): 74%
- % inhibition formation SNARE complex (SNARE complex [1]; [4]): 21%

Compound: CCCCCCCCCCCCCCCC(=O)N[C@@H](CC(=O)O)C(=O)N[C@@H](Cc1c[nH]cn1)C(=O)N[C@@H](Cc1ccccc1)C(=O)N[C@@H](CCC(N)=O)C(=O)N[C@@H](CCC(N)=O)C(=O)N[C@@H](CCCNC(=N)N)C(=O)N[C@@H](CCSC)C(N)=O [Palm-SEQ ID NO:24-NH2] (Palmitoyl-DHFQQRM-NH2)
- % inhibition formation SNARE complex (SNARE complex [2]; concentration of compound 1 mM): 17%
- % inhibition formation SNARE complex (SNARE complex [2]; concentration of compound 5 mM): 66%
- % inhibition formation SNARE complex (SNARE complex [1]; [5]): 36%

Compound: CCCCCCCCCCCCCCCC(=O)N[C@@H](CC(=O)O)C(=O)N[C@@H](Cc1c[nH]cn1)C(=O)N[C@@H](Cc1ccccc1)C(=O)N[C@@H](CC(C)C)C(=O)N[C@@H](CC(=O)O)C(=O)N[C@@H](Cc1c[nH]c2ccccc12)C(=O)N[C@@H](CCSC)C(N)=O [Palm-SEQ ID NO:25-NH2] (Palmitoyl-DHFLDWM-NH2)
- % inhibition formation SNARE complex (SNARE complex [2]; concentration of compound 1 mM): 36%
- % inhibition formation SNARE complex (SNARE complex [1]; [4]): 53%

Compound: CCCCCCCCCCCCCCCC(=O)N[C@@H](CC(=O)O)C(=O)N[C@@H](Cc1c[nH]cn1)C(=O)N[C@@H](Cc1ccccc1)C(=O)N[C@@H](CC(C)C)C(=O)N[C@@H](CC(N)=O)C(=O)N[C@@H](Cc1c[nH]c2ccccc12)C(=O)N[C@@H](CCSC)C(N)=O [Palm-SEQ ID NO:34-NH2] (Palmitoyl-DHFLNWM-NH2)
- % inhibition formation SNARE complex (SNARE complex [1]; [4]): 51%

Compound: Ac-DHFLDWM-NH2 [Ac-SEQ ID NO:25-NH2]
- % RELEASED NORADRENALINE Average ([3]; 1 µM): 99.59%
- % RELEASED NORADRENALINE Average ([3]; 10 µM): 94.48%
- % RELEASED NORADRENALINE Average ([3]; 100 µM): 74.79%
- % RELEASED NORADRENALINE Average ([3]; 500 µM): 48.07%
- % RELEASED NORADRENALINE Average ([3]; 1000 µM): 41.05%

Compound: Ac-DHFQQRM-NH2 [Ac-SEQ ID NO:24-NH2]
- % RELEASED NORADRENALINE Average ([3]; 1 µM): 90.63%
- % RELEASED NORADRENALINE Average ([3]; 10 µM): 97.06%
- % RELEASED NORADRENALINE Average ([3]; 100 µM): 88.95%
- % RELEASED NORADRENALINE Average ([3]; 500 µM): 78.11%
- % RELEASED NORADRENALINE Average ([3]; 1000 µM): 67.90%

Compound: Ac-EDLKRWM-NH2 [Ac-SEQ ID NO:14-NH2]
- % RELEASED NORADRENALINE Average ([3]; 10 µM): 84.96%
- % RELEASED NORADRENALINE Average ([3]; 100 µM): 85.97%
- % RELEASED NORADRENALINE Average ([3]; 1000 µM): 45.78%

Compound: Ac-EHLKQWM [Ac-SEQ ID NO:1-OH]
- % inhibition formation SNARE complex (SNARE complex [1]; [5]): 29%

Compound: Ac-EHLKQWM-NH2 [Ac-SEQ ID NO:1-NH2]
- % RELEASED NORADRENALINE Average ([3]; 1 µM): 96.14%
- % RELEASED NORADRENALINE Average ([3]; 10 µM): 93.07%
- % RELEASED NORADRENALINE Average ([3]; 100 µM): 79.59%
- % RELEASED NORADRENALINE Average ([3]; 500 µM): 49.08%
- % RELEASED NORADRENALINE Average ([3]; 1000 µM): 42.48%

Compound: EHLKQWM-NH2 [H-SEQ ID NO:1-NH2]
- % inhibition formation SNARE complex (SNARE complex [1]; [5]): 30%
- % inhibition formation SNARE complex (SNARE complex [1]; [4]): 58%
